Assay results as given in patent US8039482B2, “Composition of solifenacin or salt thereof for use in solid formulation” (Astellas Pharma Inc., priority 2004, dated 2011).
Like-named read-outs stand apart in the source and are kept apart here.

Legend:
[1] = molecular target: muscarine M3 receptors (Homo sapiens, UniProt P20309); details: reported in patent reference 1; cited from earlier work
[2] = format: physicochemical; details: for related substances (individual maximum values): 40° C. and 75% RH
Procedure: The amounts of degradation products over time under storage were measured by high-performance liquid chromatography. The maximum amount of the individual degradation products is shown. […] Therefore, the main cause of the degradation of the active pharmaceutical ingredient over time was presumably amorphous solifenacin succinate generated in the manufacturing process of the formulation.
Results of the stability of crystalline product and amorphous product of solifenacin succinate • Storage conditions: 40° C. and 75% RH • Packaging form: glass vial • Test items: related substances (individual maximum values)

muscarine M3 receptors, sequence (P20309 whole entry): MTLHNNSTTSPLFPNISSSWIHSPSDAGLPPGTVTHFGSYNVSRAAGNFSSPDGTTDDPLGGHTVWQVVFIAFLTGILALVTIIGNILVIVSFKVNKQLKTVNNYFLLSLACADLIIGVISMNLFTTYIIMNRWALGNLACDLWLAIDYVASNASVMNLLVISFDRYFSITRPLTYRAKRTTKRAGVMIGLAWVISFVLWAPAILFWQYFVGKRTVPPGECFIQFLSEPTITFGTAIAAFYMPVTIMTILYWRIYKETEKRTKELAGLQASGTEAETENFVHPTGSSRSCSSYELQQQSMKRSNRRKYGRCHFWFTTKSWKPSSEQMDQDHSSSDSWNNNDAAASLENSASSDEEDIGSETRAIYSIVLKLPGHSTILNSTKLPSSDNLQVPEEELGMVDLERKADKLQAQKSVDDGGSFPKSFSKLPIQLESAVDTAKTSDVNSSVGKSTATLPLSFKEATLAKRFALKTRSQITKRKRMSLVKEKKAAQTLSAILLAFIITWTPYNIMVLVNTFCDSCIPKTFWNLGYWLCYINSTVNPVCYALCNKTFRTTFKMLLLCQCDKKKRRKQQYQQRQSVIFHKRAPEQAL

Compound	antagonistic action against muscarine M3 receptors (in words) [1]	stability under storage (in words) [2]	related substances (individual maximum values) ([2]; Open glass vial, one-week later)	related substances (individual maximum values) ([2]; Open glass vial, two-week later)	related substances (individual maximum values) ([2]; Sealed glass vial, one-week later)	related substances (individual maximum values) ([2]; Sealed glass vial, two-week later)
O=C(O[C@H]1CN2CCC1CC2)N1CCc2ccccc2[C@@H]1c1ccccc1 [solifenacin, (1R,3′R)-3′-quinuclidinyl 1-phenyl-1,2,3,4-tetrahydro-2-isoquinoline carboxylate]	excellent selective antagonistic action					
O=C(O[C@H]1CN2CCC1CC2)N1CCc2ccccc2[C@@H]1c1ccccc1 [Amorphous product, solifenacin succinate]		poorer than that of the crystalline product	0.16%	0.16%	0.03%	0.05%
